In series [1] the test system is A172. In words: LDH release assay, A172. Format: cell-based, human. To be noted: A172, 1.5 μM, 24 h. As to the method: Analogous to the procedure described in the previous section, A172 and U-87 MG cells were cultured and plated in 96-well plates. The LDH-Cytotoxicity Assay Kit II (ab65393) (Abcam, Cambridge, UK) was used to assess cytotoxicity according to the manufacturer’s protocol. The test compounds MM118 and MM119 and the reference compound temozolomide (TMZ) were added to the cells at a concentration of 1.5 μM. After 24 h of exposure, the medium was collected, centrifuged and 10 μL of each sample was transferred to a new 96-well plate. In the next step, 100 μL of LDH Reaction Mix was added to each well and incubated for 30 min at room temperature. Absorbance was measured at 450 nm using an Absorbance 96 microplate reader (Byonoy GmbH, Hamburg, Germany). Cytotoxicity was calculated according to the formula provided by the manufacturer: Cytotoxicity (%) = ((Test Sample – Low Control)/(High Control – Low Control)) X 100, where Low Control - control without added compound, High Control with added 10 µL Lysis Buffer II.

For series [2], the system named is caspase 3/7. In words: Caspase 3/7 activation (FAM FLICA), U-87 MG. The format is cell-based, human. Conditions: 1.5 μM, 24 h. As to the method:
(§1) The activity of caspase 1, caspase 3/7, caspase 8, and caspase 9 was evaluated through the utilisation of FAM FLICA Caspase Assays (ImmunoChemistry Technologies, Bloomington, MN, USA), in accordance with the established protocols. Following treatment with the compounds, the cells were collected at a concentration of 1 × 10^6 cells/mL, washed twice with cold PBS, and resuspended in 290 μL of PBS. The subsequent step involved the addition of 10 μL of 30X FLICA solution, followed by incubation at 37 °C in the absence of light for one hour. Then, 2 ml of Apoptosis Wash Buffer was added, and the samples were washed twice. A 300 μL aliquot of each sample was transferred to a BD FACSCanto II flow cytometer (Becton Dickinson Biosciences, San Jose, CA, USA), where 10,000 events per sample were recorded. The resulting data was then analysed using FACSDiva software, version 6.1.3 (BD Biosciences Systems, San Jose, CA, USA).

The test system of series [3] is U-87 MG. In words: Mitochondrial membrane potential (JC-1), U-87 MG. The format is cell-based, human. Conditions: 1.5 μM, 24 h. The method, then:
(§2) The impact of the novel compounds on mitochondrial membrane potential (ΔΨm) was examined. […] In this study, the fluorochrome JC-1 was employed, which, in cells with normally functioning mitochondria, aggregates and accumulates in the hyperpolarized mitochondrial membrane, emitting a red colour. Conversely, when the membrane is damaged, JC-1 breaks down into monomers, emitting green fluorescence. […] For the U-87 MG cell line, these parameters were equal to 54.88 ± 8.36% and 56.13 ± 13.97% of the cell population.
(§3) JC-1 (1,1′,3,3′-Tetraethyl-5,5′,6,6′-tetrachloroimidacarbocyanine iodide) (BD Biosciences, San Diego, CA, USA), a lipophilic fluorochrome, was used to evaluate changes in mitochondrial membrane potential. After treatment, cancer cells at a concentration of 1 × 10^6 cells/mL were collected and rinsed twice with PBS. Then, 500 μL JC-1 working solution was added to each sample according to the manufacturer’s protocol. The samples were then incubated for 15 min at 37 °C in a CO2 incubator. After incubation, samples were washed twice with an assay buffer, and 500 μL of each sample was transferred to a BD FACSCanto II flow cytometer (Becton Dickinson Biosciences, San Jose, CA, USA) for analysis, with 10,000 events recorded per sample. Data were analysed using FACSDiva software version 6.1.3 (BD Biosciences Systems, San Jose, CA, USA).

Series [4] deals with A172. In words: Mitochondrial membrane potential (JC-1), A172. Format: cell-based, human. To be noted: A172, 1.5 μM, 24 h. The method, then:
as §2, §3

Series [5] can be described thus: Annexin V-FITC/PI apoptosis analysis, A172. The format is cell-based, human. Conditions: human, A172 cells, read-out: Viable cells; for viability at 24 h, 1 µM: A172, 1.0 μM; for viability at 24 h, 1.5 µM: A172, 1.5 μM. The method, then:
(§4) The level of apoptosis induction of the newly synthesised compounds MM118 and MM119 was determined using double staining with Annexin V-FITC and propidium iodide (AV/PI). This method enables the differentiation of four cell populations based on their state: viable cells, necrotic cells, cells in early apoptosis, and late apoptosis. The compounds were analysed on A172 and U-87 MG human glioblastoma multiforme cell lines using concentrations of 1 μM and 1.5 μM over a 24-h exposure period.
(§5) The impact of apoptosis induction by the tested compounds at concentrations of 1 μM and 1.5 μM, as well as by temozolomide at 1.5 μM, was evaluated through annexin V-FITC and propidium iodide (PI) staining with the Apoptosis Detection Kit II (BD Biosciences, San Diego, CA, USA). The glioblastoma cell lines A172 and U-87 MG were then deprived of medium and washed several times with cold phosphate-buffered saline (PBS) solution. The cell suspension was then prepared in the binding buffer provided in the kit at a concentration of 1 × 10^6 cells/mL. From each sample, 100 μL of the cell suspension was transferred to tubes and subsequently treated with 5 μL of Annexin V-FITC and 5 μL of propidium iodide (PI). The tubes were then incubated for 15 min at room temperature in the dark. Following the incubation period, 400 μL of binding buffer was added to each sample, after which the samples were immediately analysed using a BD FACSCanto II flow cytometer (Becton Dickinson Biosciences, San Jose, CA, USA), with 10,000 events recorded per sample. The results were then analysed using FACSDiva Software Version 6.1.3 (BD Biosciences Systems, San Jose, CA, USA).

In series [6] the test system is A172. In words: Annexin V-FITC/PI apoptosis analysis, A172. Format: cell-based, human. Conditions: A172, 1.5 μM, 24 h. The method, then: as §4, §5
Series [7] deals with NF-κB. In words: NF-kB staining (immunofluorescence, confocal). The format is cell-based. To be noted: 1.5 μM, 24 h of treatment. The method, then:
Location of NF-kB was evaluated by immunofluorescence staining. Cells were cultured on sterile coverslips placed in 6-well plates and treated with compounds MM118, MM119, and TMZ at a concentration of 1.5 μM. After 24 h of treatment, cells were fixed with 4% paraformaldehyde for 15 min at room temperature, then permeabilized with 0.1% Triton X-100 in PBS for 10 min. Following permeabilization, cells were blocked with 2% BSA (bovine serum albumin; Cell Signalling Technology, Danvers, MA, USA) in PBS for 30 min to prevent non-specific binding. Subsequently, cells were incubated overnight at 4 °C with a NF-KB antibody directly conjugated with Alexa Fluor 647 (#D14E12; Cell Signalling Technology, Danvers, MA, USA). The next day, after washing with PBS, nuclei were counterstained with DAPI (4′,6-diamidino-2-phenylindole; Sigma-Aldrich, St. Louis, MO, USA) for 5 min at room temperature. Coverslips were mounted onto glass slides using an antifade mounting medium and imaged using a Stellaris 5 confocal microscope (Leica Microsystems, GmbH, Wetzlar, Germany). Images were analysed using ImageJ software (Bethesda, MD, USA).

Series [8] has as its system caspase 8. In words: Caspase 8 activation (FAM FLICA), U-87 MG. The format is cell-based, human. To be noted: 1.5 μM, 24 h. The method, then:
as §1

In the case of `CCC(CO)NS(=O)(=O)c1ccc(-n2nc(C)c3nc4nnnn4nc32)cc1` (stereo in doubt) [MM118, N-(R)-(1-hydroxy-but-2-yl)-4-[7-methyl-5H-pyrazolo[4,3-e]tetrazolo[1,5-b][1]^,[2]^,[4]triazin-5-yl)]benzenesulfonamide], in series [1], the “LDH release, cytotoxicity” value came to 16.59 ± 1.71%. Besides, the “Active caspase 3/7 (cell population)” value in series [2] was 60.08 ± 2.50%. The “Decreased ΔΨm (cell population)” value in series [3] was found to be 54.88 ± 8.36%. Moreover, the “Decreased ΔΨm (cell population)” value in series [4] is 70.43 ± 1.44%. Also, in series [5], the viability at 24 h, 1 µM turned out to be 88.2% and the viability at 24 h, 1.5 µM stood at 65.5 ± 5.06%. For the same compound, in series [6], the Early apoptotic cells was determined as 3.03 ± 0.44%, the Late apoptotic cells amounted to 22.10 ± 6.56% and the Necrotic cells stood at 9.50 ± 2.10%. Also, the NF-κB localisation entry in series [7] is recorded as “NF-κB translocates to the cell nucleus”. The “Active caspase 8 (cell population)” value in series [8] is listed as 73.65 ± 3.76%.

As for `CCC(CO)NS(=O)(=O)c1ccc(-n2nc(C)c3nc4nnnn4nc32)cc1` (stereo in doubt) [MM119, N-(S)-(1-hydroxy-but-2-yl)-4-[7-methyl-5H-pyrazolo[4,3-e]tetrazolo[1,5-b][1]^,[2]^,[4]triazin-5-yl)]benzenesulfonamide], the “LDH release, cytotoxicity” value in series [1] is recorded as 13.44 ± 2.87%. Further, in series [2], the “Active caspase 3/7 (cell population)” value is given as 57.48 ± 19.68%. In addition, in series [3], the “Decreased ΔΨm (cell population)” value came to 56.13 ± 13.97%. The “Decreased ΔΨm (cell population)” value in series [4] stood at 64.38 ± 1.90%. Moreover, in series [5], the viability at 24 h, 1 µM turned out to be 90.7% and the viability at 24 h, 1.5 µM was found to be 74.8 ± 1.84%. In series [6], this compound showed an Early apoptotic cells of 1.00 ± 0.28%, a Late apoptotic cells of 18.80 ± 1.35% and a Necrotic cells of 2.13 ± 0.62%. Moreover, the NF-κB localisation entry in series [7] was “NF-κB translocates to the cell nucleus”. Besides, in series [8], the “Active caspase 8 (cell population)” value was determined as 69.15 ± 6.30%.

Consider `Cn1nnc2c(C(N)=O)ncn2c1=O` [TMZ, temozolomide, reference compound], for which the “LDH release, cytotoxicity” value in series [1] is given as −0.61 ± 2.02%. The “Active caspase 3/7 (cell population)” value in series [2] is “no significant differences”. Moreover, in series [3], the “Decreased ΔΨm (cell population)” value stood at 7.05 ± 2.85%. The “Decreased ΔΨm (cell population)” value in series [4] is given as 20.25 ± 9.20%. In addition, the viability at 24 h, 1.5 µM in series [5] was 89.75 ± 0.71%. In series [6], this compound had an Early apoptotic cells of 1.55 ± 0.06%, a Late apoptotic cells of 6.83 ± 0.39% and a Necrotic cells of 1.90 ± 0.38%. Further, in series [7], the NF-κB localisation result was “NF-κB translocates to the cell nucleus”. Further, the “Active caspase 8 (cell population)” value in series [8] is given as “No significant statistical differences”.

(Values after article PMC12679848, “Sulphonamide derivatives with a triazine core as novel inducers of apoptosis and pyroptosis in glioblastoma multiforme cells” (Journal of Enzyme Inhibition and Medicinal Chemistry, 2025).)
